According to ChEMBL document CHEMBL5579793, “Design of cyclic peptides as novel inhibitors of ICOS/ICOSL interaction” (Bioorg Med Chem Lett, 2024):
Activity calls are given as the source filed them. No cut-off for these calls is given here. Where a SMILES comes first, the peptide text is derived from it. Bridges are numbered along the chain shown (N, C = ends).

Key:
ICOS-ICOSL [1] = target: T1, ICOS-ICOSL (Homo sapiens, UniProt O75144+Q9Y6W8); assay: (§1) Inhibition of ICOS/ICOSL (unknown origin) interaction by TR-FRET assay; type: protein assay
T1 sequence (O75144 whole entry): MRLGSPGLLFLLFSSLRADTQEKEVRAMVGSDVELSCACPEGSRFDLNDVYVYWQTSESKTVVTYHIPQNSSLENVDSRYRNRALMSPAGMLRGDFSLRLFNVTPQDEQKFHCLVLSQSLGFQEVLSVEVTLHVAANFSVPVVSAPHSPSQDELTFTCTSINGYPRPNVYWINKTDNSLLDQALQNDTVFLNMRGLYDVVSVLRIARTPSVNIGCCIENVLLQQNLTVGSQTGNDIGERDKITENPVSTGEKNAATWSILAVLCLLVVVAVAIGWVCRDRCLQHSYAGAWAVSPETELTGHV
T1 sequence (Q9Y6W8 whole entry): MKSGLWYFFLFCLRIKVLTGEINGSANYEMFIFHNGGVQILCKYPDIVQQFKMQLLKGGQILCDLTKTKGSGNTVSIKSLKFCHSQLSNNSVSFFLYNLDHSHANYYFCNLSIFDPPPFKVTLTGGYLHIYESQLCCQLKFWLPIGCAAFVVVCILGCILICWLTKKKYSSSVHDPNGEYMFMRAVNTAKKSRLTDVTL

ICOS-ICOSL [2] = target: T1, ICOS-ICOSL; assay: (§2) Inhibition of ICOS/ICOSL (unknown origin) interaction by ELISA method; type: protein assay
[3] = target: T2, Inducible T-cell costimulator (Homo sapiens, UniProt Q9Y6W8); assay: Binding affinity to ICOS (unknown origin) assessed as dissociation constant
T2 sequence (Q9Y6W8 whole entry): T1 sequence (Q9Y6W8 whole entry)

Homo sapiens [4] = organism: Homo sapiens; assay: Inhibition of PD-1/PD-L1 (unknown origin) protein-protein interaction at 50 uM by TR-FRET assay
Homo sapiens [5] = organism: Homo sapiens; assay: Inhibition of CTLA4/B-7 (unknown origin) protein-protein interaction at 50 uM by TR-FRET assay
Homo sapiens [6] = organism: Homo sapiens; assay: Inhibition of LAG-3/FGL1 (unknown origin) protein-protein interaction at 50 uM by TR-FRET assay
Homo sapiens [7] = organism: Homo sapiens; assay: Inhibition of VISTA/VSIG-3 (unknown origin) protein-protein interaction at 50 uM by TR-FRET assay
[8] = Stability of the compound in stimulated gastric fluid assessed as half life at pH 1.6; type: ADME; conditions: simulated gastric fluid
[9] = Stability of the compound in stimulated intestinal fluid assessed as half life at pH 6.5; type: ADME; conditions: simulated intestinal fluid
[10] = Stability in human plasma assessed as parent compound remaining measured after 2 hrs; type: ADME, cell-free; conditions: read-out: Stability
[11] = Lipophilicity, log D of compound at pH 7.4 by shake-flask method; type: physicochemical; conditions: buffer
[12] = Apparent permeability of the compound in human Caco-2 cells across apical to basolateral side; type: ADME, cell-based
[13] = Apparent permeability of the compound in human Caco-2 cells across basolateral to apical side; type: ADME, cell-based
[14] = Stability in rat liver microsomes assessed as half life; type: ADME, Microsome
[15] = target: T3, ICOS-ICOSL (Homo sapiens) (UniProt O75144+Q9Y6W8); assay: as §1; type: protein assay
[16] = target: T3, ICOS-ICOSL (Homo sapiens); assay: as §2; type: protein assay

Structure (SMILES) | IC50 (ICOS-ICOSL [1]) [µM] | IC50 (ICOS-ICOSL [2]) [µM] | Kd [3] [µM] | inhibition (Homo sapiens [4]) | inhibition (Homo sapiens [5]) | inhibition (Homo sapiens [6]) | inhibition (Homo sapiens [7]) | half-life [8] [h] | half-life [9] [h] | remaining at 2 h [10] [%] | logD [11] | Papp A→B [12] [×10⁻⁶ cm/s] | Papp B→A [13] [×10⁻⁶ cm/s] | half-life [14] [h] | inhibition [15] | inhibition [16]
CC(C)C[C@H](NC(=O)[C@@H]1CSSC[C@H](NC(=O)[C@@H](N)Cc2ccc(O)cc2)C(=O)N[C@@H](Cc2ccc(O)cc2)C(=O)N2CCC[C@H]2C(=O)N[C@@H](C(C)C)C(=O)N2CCC[C@H]2C(=O)N[C@@H](Cc2ccc(O)cc2)C(=O)N2CCC[C@H]2C(=O)N2CCC[C@H]2C(=O)N[C@@H](Cc2ccccc2)C(=O)N[C@@H](Cc2ccccc2)C(=O)N[C@@H](CC(C)C)C(=O)N1)C(=O)N[C@@H](Cc1ccccc1)C(=O)N[C@@H](CC(N)=O)C(=O)O (H-YCYPVPYPPFFLCLFN-OH; disulfide 2-13) | 4.48 | 1.87 | 36.7 | inactive | inactive | inactive | inactive | 6.5 | 20.4 | 98.2 | 2.94 | 6.72 | 10.8 | 18.3 | – | –
CC[C@H](C)[C@@H]1NC(=O)[C@H](CO)NC(=O)[C@H](Cc2ccc(O)cc2)NC(=O)[C@H](Cc2ccc(O)cc2)NC(=O)[C@@H]2CSSC[C@H](NC(=O)[C@H](CC(C)C)NC(=O)[C@@H]3CCCN3C(=O)[C@@H]3CCCN3C1=O)C(=O)N[C@@H](CC(C)C)C(=O)N1CCC[C@H]1C(=O)N[C@@H](Cc1ccccc1)C(=O)NCC(=O)N[C@@H](CCCNC(=N)N)C(=O)N2 (cyclo(CLPFGRCYYSIPPL); disulfide 1-7) | – | – | 4.47 | – | – | – | – | – | – | – | – | – | – | – | inactive | inactive
CC(C)C[C@@H]1NC(=O)[C@H](Cc2ccccc2)NC(=O)[C@H](Cc2ccccc2)NC(=O)[C@@H]2CCCN2C(=O)[C@@H]2CCCN2C(=O)[C@H](Cc2ccc(O)cc2)NC(=O)[C@@H]2CCCN2C(=O)[C@H](C(C)C)NC(=O)[C@@H]2CCCN2C(=O)[C@H](Cc2ccc(O)cc2)NC(=O)[C@@H]2CSSC[C@H](NC1=O)C(=O)N[C@@H](CC(C)C)C(=O)N1CCC[C@H]1C(=O)N[C@@H](Cc1ccccc1)C(=O)N[C@@H](Cc1ccc(O)cc1)C(=O)N2 (cyclo(CLPFYCYPVPYPPFFL); disulfide 1-6) | 3.68 | – | – | – | – | – | – | – | – | – | – | – | – | – | – | inactive
